These results are taken from article PMC3635668 (Analytical chemistry, 2013).

A word on the IC50: it is the concentration that gives 50% inhibition.

Where two headings read alike, the source gives them in different places. Non-standard residues stand in square brackets, D forms with d. No end group written: not given here. Sta = CC(C)C[C@H](N)[C@@H](O)CC(=O)O

Assay [1] deals with BACE1. Conditions: read-out: IC50 (MS); determined by MS; cited from earlier work.
In assay [2] the target is BACE1 (Homo sapiens, UniProt P56817). The assay can be described thus: SPR antibody-amplified BACE1 cleavage inhibition assay, immobilized APP. Conditions: for BACE1 inhibition, two-channel screening (in words): 30 nM compound 1 (CH1) or 2 μM compound 2 (CH2), Figure 2B. The class given is biochemical.
Sequence of BACE1 (Homo sapiens, UniProt P56817) (P56817 46-501): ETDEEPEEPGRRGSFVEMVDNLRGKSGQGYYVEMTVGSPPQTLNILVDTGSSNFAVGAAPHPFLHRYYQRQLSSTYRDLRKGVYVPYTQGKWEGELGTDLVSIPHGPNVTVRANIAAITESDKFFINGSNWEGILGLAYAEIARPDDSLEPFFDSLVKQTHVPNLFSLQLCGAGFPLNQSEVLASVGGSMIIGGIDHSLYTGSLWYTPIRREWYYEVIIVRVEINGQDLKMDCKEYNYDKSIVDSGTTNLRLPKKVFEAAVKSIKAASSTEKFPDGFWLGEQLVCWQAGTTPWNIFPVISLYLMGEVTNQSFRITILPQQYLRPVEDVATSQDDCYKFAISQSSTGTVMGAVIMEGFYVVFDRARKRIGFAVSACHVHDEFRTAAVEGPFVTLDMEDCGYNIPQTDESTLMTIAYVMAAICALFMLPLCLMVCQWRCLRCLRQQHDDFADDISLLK
Assay [3] concerns BACE1. Conditions: read-out: IC50 (ELISA); measured from ELISA; cited from earlier work. Background: ELISA stands for enzyme-linked immunosorbent assay.
The mark [4] stands for this setting: 10 nM BACE1, SA-coated PEG chip.

Turning to Ph-LL-4,5-dehydro-L-CHO [Compound 2], the IC50 in the assay with BACE1 [1] was 3000 nM. Also, the “BACE1 inhibition, two-channel screening (in words)” value at BACE1 [2] (setting [4]) is recorded as “exhibited inhibition of the BACE1 activity”. In addition, the “BACE1 inhibition (in words)” value at BACE1 [2] (2 μM compound 2, 10 nM BACE1, Ni-NTA chip, Figure 4 cycle 4) was “partially inhibits BACE1”.

As for “KTEEISEVN-Sta-VAEF (KTEEISEVN[Sta]VAEF) [Compound 1]”, the “BACE1 inhibition, two-channel screening (in words)” value in the assay with BACE1 [2] (setting [4]) was “exhibited inhibition of the BACE1 activity”. Also, in the assay with BACE1 [2] (30 nM compound 1 vs 2 μM compound 2, Figure 2B), the “relative potency compound 1 vs compound 2 (in words)” value is recorded as “much more potent inhibitor”. Besides, the “BACE1 inhibition (in words)” value in the assay with BACE1 [2] (40 nM compound, 10 nM BACE1, SA-coated PEG chip, Figure 2A curve c) is reported as “insufficient to completely halt the peptide cleavage by BACE1”. In addition, the IC50 in the assay on BACE1 [3] is 30 nM.
